Data as given in patent publication US20160199524A1, “RADIOSENSITIVITY OF FLUOROPHORES AND USE OF RADIOPROTECTIVE AGENTS FOR DUAL-MODALITY IMAGING” (Immunomedics, Inc., priority 2015, published 2016).

How the values were obtained:
[1] = Stability of Al^18F(IMP485)/IMP487 in human serum at 37° C.; assay type: in vitro ADME; conditions: four hours
Experimental: A kit containing 40 nmol of IMP485 or IMP487, 20 nmol AlCl3, 0.1 mg ascorbic acid and 0.1 g trehalose adjusted to pH 3.9 was reconstituted with purified ^18F^− in 200 μL saline and heated 106° C. for 15 min. The reaction mixture was then diluted with 800 μL water and placed on an HLB column. […] The radiolabeled peptide in […] was mixed with 250 μL of fresh human serum in a vial and incubated at 37° C.
The purified radiolabeled peptide in 50 μL 1:1 EtOH/H2O was mixed with 150 μL of human serum and placed in the HPLC autosampler heated to 37° C. and analyzed by RP-HPLC.

[2] = system: nude mice bearing LS174T human colonic cancer xenografts; assay: in vivo
Experimental: (§1) Mice were necropsied at 1 and 3 h post injection, 7 mice per time point.
(§2) Biodistribution studies were performed in Taconic nude mice bearing subcutaneous LS174T tumor xenografts.
(§3) Mice were necropsied at 1 and 3 h post injection, 6 mice per time point.

[3] = Biodistribution of Al^18F(IMP485) alone or TF2 pretargeted; conditions: Taconic nude, mouse, in vivo, iv
Experimental: as §1, §2, §3

[4] = Taconic nude, mouse, in vivo, iv, 1 h
[5] = Taconic nude, mouse, in vivo, iv, 3 h
[6] = nude (Taconic), mouse, in vivo, iv, 3 h
[7] = nude, mouse, in vivo, iv, 28 uCi, 3 h

## NC(=O)[C@@H](CCCCNC(=O)CNC(=O)CCC(=O)NCCc1c[nH]cn1)NC(=O)[C@@H](Cc1ccc(O)cc1)NC(=O)[C@@H](CCCCNC(=O)CNC(=O)CCC(=O)NCCc1c[nH]cn1)NC(=O)Cc1ccc(CN2CCN(CC(=O)O)CCN(CC(=O)O)CC2)cc1 [Al^18F(IMP485)]
[1]
  stability in human serum: stable
[2]; [4]
  % ID/g Lg. Int.: 0.10 ± 0.03 % ID/g
  % ID/g Liver: 0.24 ± 0.04 % ID/g
  % ID/g Muscle: 0.14 ± 0.10 % ID/g
[2]; [5]
  % ID/g Blood: 0.02 ± 0.01 % ID/g
  % ID/g Lung: 0.24 ± 0.06 % ID/g
  % ID/g Muscle: 0.03 ± 0.01 % ID/g
  % ID/g Stomach: 0.03 ± 0.02 % ID/g
[2]; alone, 1 h post injection
  % ID/g Sm. Int.: 0.40 ± 0.13 % ID/g
  % ID/g Spleen: 0.21 ± 0.18 % ID/g
  % ID/g Stomach: 0.13 ± 0.11 % ID/g
  % ID/g Tumor: 0.32 ± 0.11 % ID/g
  T/NT Blood: 2.0
  T/NT Kidney: 0.1
  T/NT Lg. Int.: 3.9
  T/NT Liver: 1.8
  T/NT Lung: 1.3
  T/NT Muscle: 4.1
  T/NT Scapula: 2.9
  T/NT Sm. Int.: 0.8
  T/NT Spleen: 1.9
  T/NT Stomach: 3.5
  T/NT Tumor: 1.0
[2]; alone, 3 h post injection
  % ID/g Stomach: 0.04 ± 0.02 % ID/g
  % ID/g Tumor: 0.09 ± 0.02 % ID/g
  T/NT Blood: 21.0
  T/NT Kidney: 0.0
  T/NT Lg. Int.: 0.1
  T/NT Liver: 13.6
  T/NT Lung: 1.3
  T/NT Muscle: 203.9
  T/NT Scapula: 1.2
  T/NT Sm. Int.: 0.7
  T/NT Spleen: 1.4
  T/NT Stomach: 2.5
  T/NT Tumor: 1.0
[2]; mouse, in vivo
  T/NT Tumor: 1
[2]; nude (Taconic), mouse, in vivo, iv, 28 uCi, 1 h
  % ID/g Lg. Int.: 0.08 ± 0.02 % ID/g
[2]; nude (Taconic), mouse, in vivo, iv, 28 uCi, 3 h
  % ID/g Lung: 0.07 ± 0.02 % ID/g
[2]; [6]
  % ID/g Scapula: 0.06 ± 0.02 % ID/g
  % ID/g Spleen: 0.25 ± 0.11 % ID/g
[2]; [7]
  % ID/g Liver: 0.10 ± 0.05 % ID/g
  % ID/g Muscle: 0.01 ± 0.01 % ID/g
[2]; nude, mouse, in vivo, iv, 1 h
  % ID/g Blood: 0.28 ± 0.07 % ID/g
  % ID/g Stomach: 0.53 ± 1.18 % ID/g
[3]
  tissue uptake at 3 h: 0.353 %ID/g
[3]; % ID/g Blood
  tissue uptake at 3 h: 0.023 %ID/g
[3]; % ID/g Kidney
  tissue uptake at 1 h: 3.19 %ID/g
[3]; % ID/g Lg. Int.
  tissue uptake at 1 h: 0.104 %ID/g
  tissue uptake at 3 h: 0.35 ± 0.16 %ID/g
[3]; % ID/g Liver
  tissue uptake at 1 h: 0.237 %ID/g
[3]; % ID/g Lung
  tissue uptake at 3 h: 0.244 %ID/g
[3]; % ID/g Muscle
  tissue uptake at 1 h: 0.136 %ID/g
  tissue uptake at 3 h: 0.025 %ID/g
[3]; % ID/g Scapula
  tissue uptake at 1 h: 0.5 %ID/g
[3]; % ID/g Sm. Int.
  tissue uptake at 3 h: 0.071 %ID/g
[3]; % ID/g Spleen
  tissue uptake at 1 h: 0.254 %ID/g
[3]; % ID/g Stomach
  tissue uptake at 3 h: 0.025 %ID/g
[3]; % ID/g Tumor
  tissue uptake at 1 h: 28.1 %ID/g
[3]; % ID/org Blood
  tissue uptake dose at 3 h: 0.037 %ID
[3]; % ID/org Kidney
  tissue uptake dose at 1 h: 0.444 %ID
[3]; % ID/org Lg. Int.
  tissue uptake dose at 1 h: 0.055 %ID
  tissue uptake dose at 3 h: 0.206 %ID
